What was measured:
[1] = tested on: creatine kinase from serum; test: Creatine kinase (CK) activity from serum, coupled HK/G-6-PD reaction at 340 nm; format: biochemical, human; settings: FIG. 3
Description: Each value represent the average of five independent readings.
All the CK activities were corrected by allowing for the AK activity.
The same samples were used both for AMP and the fluoride. The ordinates report the percentage relative to the inhibition of the creatine kinase and the abscissae indicate the concentrations of AMP, or fluoride, in millimols per liter, in FIG. 3.

CK = settings: AMP at 5 to 10 times the ADP concentration; cited from earlier work
erythrocyte AK = target: T1, erythrocyte AK (Homo sapiens, UniProt P00568); test: CK determination in normal sera without and with added erythrocyte AK; format: biochemical; settings: AMP only at 5 millimols per liter
T1 construct: the haemolysate from human erythrocytes; from tissue; host or cells: human erythrocytes (haemolysate)
T1 sequence (P00568 1-194): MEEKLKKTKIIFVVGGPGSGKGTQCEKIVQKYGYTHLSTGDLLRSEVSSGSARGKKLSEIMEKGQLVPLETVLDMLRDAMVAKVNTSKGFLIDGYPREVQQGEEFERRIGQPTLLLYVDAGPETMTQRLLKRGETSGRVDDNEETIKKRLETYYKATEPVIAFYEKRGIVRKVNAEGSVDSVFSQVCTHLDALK
Description: Such samples have been analyzed with the method described herein and with that which uses AMP at 5 millimols per liter.

adenylate kinase = settings: erythrocyte AK; agent used alone (AMP without fluoride, fluoride without AMP); FIG. 1, 2
Description: Normal and abnormal sera (from myocardial infarct) and the haemolysate from human erythrocytes were used as sources of CK and of AK.
The AK activity was determined according to the method by Szasz et al. (Clin. Chem., 22, 1806, (1976)). […] A spectrophotometer, Beckman-25 with basin-supporting cradle and thermostat, was used. The reaction temperature for determining both AK and CK was 37° C.

inhibition of CK activity ([1]; AMP at 20 millimols per liter) | excess of CK values of samples with erythrocyte AK over normal samples (erythrocyte AK) | difference in CK activity between normal samples and samples with added erythrocyte AK (erythrocyte AK; P less than 0.01) | SMILES | inhibition of the activity of the CK (CK) | concentration at which 95% of inhibition of AK is attained (adenylate kinase) | inhibition of CK activity ([1]; fluoride at 25 millimols per liter)
more than 10% | about 50% | most significant difference | Nc1ncnc2c1ncn2[C@@H]1O[C@H](COP(=O)(O)O)[C@@H](O)[C@H]1O [AMP, adenosine-5'-monophosphate] | slightly inhibits | more than 20 millimols per liter | 
 |  |  | [F-].[K+] [fluoride, potassium fluoride] |  | 25 millimols per liter | ≥ 4%

Source: patent US4220714A, “Composition for inhibiting adenylate-kinase and its use” (priority 1977, dated 1980)
